From patent US20230303493A1, “ANTIBACTERIAL ADJUVANTS AND APPLICATIONS THEREOF” (THE TRUSTEES OF PRINCETON UNIVERSITY, priority 2020, published 2023)

system: P. aeruginosa PA14; experiment: IC50 of compounds in conjunction with colistin relative to P. aeruginosa (growth, absorbance at 600 nm); format: cell-based; details: Pseudomonas aeruginosa, PA14, 17 h
Protocol: Various compounds of formula I in Example 1 above were tested to determine IC50 of the compounds in conjunction with colistin relative to P. aeruginosa. IC50 testing of the compounds was conducted to the following protocol. Overnight cultures of P. aeruginosa PA14 were back diluted into fresh LB to an OD600 of 2.5×10^−3. Using polypropylene 96 well plates (Corning 3879), the potential antibiotic adjuvant was assayed with a 3-fold dilution starting with a […]. The concentration of colistin was held constant at sublethal concentration ([…]), using a freshly prepared colistin stock and minimizing transfers of colistin-containing solutions. After 17 h of aerobic growth at 37° C., 300 rpm, the absorbance at 600 nm was recorded.

In the case of `C#Cc1ccc(OCCCCCC(=O)Nc2ccnc(C(F)(F)F)c2)cc1` [Compound S20, 6-(4-Ethynylphenoxy)-N-(2-(trifluoromethyl)pyridin-4-yl)hexanamide], the IC50 is reported as 15.5 µM.

same assay, conditions: Pseudomonas aeruginosa; P. aeruginosa PA14 in LB; colistin held constant at sublethal concentration (0.25 to 0.375 pg/mL); 3-fold dilution starting with a 250 concentration; 17 h aerobic growth at 37° C.; absorbance at 600 nm; read-out: IC50

Going from `CSc1ccc(OCCCCCC(=O)Nc2ccnc(C(F)(F)F)c2)cc1` [Compound S17, 6-(4-(Methylthio)phenoxy)-N-(2-(trifluoromethyl)pyridin-4-yl)hexanamide] to `CC(C)(C)c1ccc(OCCCCCC(=O)Nc2ccnc(C(F)(F)F)c2)cc1` [Compound S27, 6-(4-(tert-Butyl)phenoxy)-N-(2-(trifluoromethyl)pyridin-4-yl)hexanamide], the IC50 falls from 14 µM to 2.6 µM (5.4-fold).

Going from `C#Cc1ccccc1OCCCCCC(=O)Nc1ccnc(C(F)(F)F)c1` [Compound S22, 6-(2-Ethynylphenoxy)-N-(2-(trifluoromethyl)pyridin-4-yl)hexanamide] to `CC(=O)c1ccccc1OCCCCCC(=O)Nc1ccnc(C(F)(F)F)c1` [Compound S32, 6-(2-Acetylphenoxy)-N-(2-(trifluoromethyl)pyridin-4-yl)hexanamide], the IC50 rises from 15.5 µM to 57 µM (3.7-fold).

Going from `CC(C)(C)c1cccc(OCCCCCC(=O)Nc2ccnc(C(F)(F)F)c2)c1` [Compound S28, 6-(3-(tert-Butyl)phenoxy)-N-(2-(trifluoromethyl)pyridin-4-yl)hexanamide] to `O=C(CCCCCOc1ccc2ccccc2c1)Nc1ccnc(C(F)(F)F)c1` [Compound S38, 6-(Naphthalen-2-yloxy)-N-(2-(trifluoromethyl)pyridin-4-yl)hexanamide], the IC50 rises from 0.8 µM to 2.6 µM (3.2-fold). The first is the more potent here.

Compared with `O=C(CCCCCOc1ccc(C(=O)OCc2ccccc2)cc1)Nc1ccnc(C(F)(F)F)c1` [Compound S30, Benzyl 4-((6-oxo-6((2-(trifluoromethyl)pyridin-4-yl)amino)hexyl)oxy)benzoate], `COC(=O)c1ccc(OCCCCCC(=O)Nc2ccnc(C(F)(F)F)c2)cc1` [Compound S34, Methyl 4-((6-oxo-6-((2-(trifluoromethyl)pyridin-4-yl)amino)hexyl)oxy)benzoate] is 34-fold higher in IC50: 2.6 µM for the first, 88 µM for the second.

Compared with `O=C(CCCCCOc1cccc2ccccc12)Nc1ccnc(C(F)(F)F)c1` [Compound S39, 6-(Naphthalen-1-yloxy)-N-(2-(trifluoromethyl)pyridin-4-yl)hexanamide], `O=C(CCCCCN1CCN(c2ccccc2)CC1)Nc1ccnc(C(F)(F)F)c1` [Compound S40, 6-(4-Phenylpiperazin-1-yl)-N-(2-(trifluoromethyl)pyridin-4-yl)hexanamide] is 3.3-fold higher in IC50: 15 µM for the first, 50 µM for the second. The first is the more potent here.

`O=C(CCCCCN1CCN(c2ccccn2)CC1)Nc1ccnc(C(F)(F)F)c1` [Compound S41, 6-(4-(Pyridin-2-yl)piperazin-1-yl)-N-(2-(trifluoromethyl)pyridin-4-yl)hexanamide] and `O=C(CCCCCN1CCN(c2cccnc2)CC1)Nc1ccnc(C(F)(F)F)c1` [Compound S42, 6-(4-(Pyridin-3-yl)piperazin-1-yl)-N-(2-(trifluoromethyl)pyridin-4-yl)hexanamide] are within 1.5-fold of each other in IC50: 95 µM for the first, 70 µM for the second.

For `O=C(CCCCCN1CCN(c2ccncc2)CC1)Nc1ccnc(C(F)(F)F)c1` [Compound S43, 6-(4-(Pyridin-4-yl)piperazin-1-yl)-N-(2-(trifluoromethyl)pyridin-4-yl)hexanamide], the IC50 was 75 µM.
